Reference: patent US20210221832A1, “SUBSTITUTED PYRIDOINDOLES FOR THE TREATMENT AND PROPHYLAXIS OF BACTERIAL INFECTION” (Hoffmann-La Roche Inc., priority 2018, published 2021)
Converted amounts (≈) assume the structure as drawn.

Tests used:
[1] = Lyophilisation Solubility Assay (LYSA); format: physicochemical; conditions: aqueous buffer, thermodynamic from solid; 0.05 M phosphate buffer, pH 6.5
Experimental: The solubility of compounds of present invention was assessed by LYSA assay. Samples were prepared in duplicate from 10 mM DMSO stock solutions (20 μL) diluted in 30 μL pure DMSO. After evaporation of DMSO with a centrifugal vacuum evaporator, the residue was dissolved in 0.05 M phosphate buffer (150 μL, pH 6.5), which was stirred for one hour and shook for two hours. After one night, the solution was filtered using a microtiter filter plate. Then the filtrate and its 1/10 dilution were analyzed by HPLC-UV. In addition, a four-point calibration curve was prepared from the 10 mM stock solutions and used for the solubility determination of the compounds.

S. aureus (ATCC29213) = assay: 50% Growth Inhibitory Concentration (IC50) Determination Assay, S. aureus; format: cell-based; conditions: Staphylococcus aureus, growth inhibition, Iso-Sensitest broth, OD 600 nm over 16 h
Experimental: (§1) The in vitro antimicrobial activity of the compounds against S. aureus (ATCC29213), K. pneumoniae (ATCC10031), and A. baumannii (ATCC17978), was determined according to the following procedure: The assay used a 10-points Iso-Sensitest broth medium to measure quantitatively the in vitro activity of the compounds against S. aureus ATCC29213, K. pneumoniae ATCC 10031, and A. baumannii ATCC 17978. Stock compounds in DMSO were serially two-fold diluted (range from 50 to 0.097 μM final concentration) in 384 wells microtiter plates and inoculated with 49 μL the bacterial suspension in Iso-Sensitest broth medium to have a final cell concentration of 5×10^5 CFU/mL in a final volume/well of 50 μL/well. Microtiter plates were incubated at 35±2° C. Bacterial cell growth was determined with the measurement of optical density at λ=600 nm each 20 minutes over a time course of 16 h. Growth inhibition was calculated during the logarithmic growth of the bacterial cells with determination of the concentration inhibiting 50% (IC50) of the growth. The parent compounds of the present invention were tested for their concentration inhibiting 50% (IC50). The data of IC50 over S. aureus (ATCC29213), K. pneumoniae (ATCC10031), and A. baumannii (ATCC17978) are illustrated in Table 6.

[2] = tested on: K. pneumoniae (ATCC10031); assay: 50% Growth Inhibitory Concentration (IC50) Determination Assay, K. pneumoniae; format: cell-based; conditions: Klebsiella pneumoniae, growth inhibition, Iso-Sensitest broth, OD 600 nm over 16 h
Experimental: as §1

A. baumannii (ATCC17978) = assay: 50% Growth Inhibitory Concentration (IC50) Determination Assay, A. baumannii; format: cell-based; conditions: Acinetobacter baumannii, growth inhibition, Iso-Sensitest broth, OD 600 nm over 16 h
Experimental: as §1

Row | SMILES | solubility [1] [µg/mL] | IC50 (S. aureus (ATCC29213)) [nM] | IC50 [2] [nM] | IC50 (A. baumannii (ATCC17978)) [nM]
1 | CNc1cc(F)c(C#N)c2c1[nH]c1ncc(-c3cnc4c(c3)c(=O)c(C(=O)O)cn4C)c(N3CC[C@H]4CN(C)C[C@H]43)c12 [Example 1.03D, 6-[5-cyano-6-fluoro-8-(methylamino)-4-[(3aS,6aS)-5-methyl-2,3,3a,4,6,6a-hexahydropyrrolo[2,3-c]pyrrol-1-yl]-9H-pyrido[2,3-b]indol-3-yl]-1-methyl-4-oxo-1,8-naphthyridine-3-carboxylic acid] | 194 (≈ 342 µM) | < 98 | < 98 | 45
2 | CNc1cc(F)c(F)c2c1[nH]c1ncc(-c3cnc4c(c3)c(=O)c(C(=O)O)cn4C)c(N3CC[C@H]4CN(C)C[C@H]43)c12 [Example 1.26E, 6-[5,6-difluoro-8-(methylamino)-4-[(3aS,6aS)-5-methyl-2,3,3a,4,6,6a-hexahydropyrrolo[2,3-c]pyrrol-1-yl]-9H-pyrido[2,3-b]indol-3-yl]-1-methyl-4-oxo-1,8-naphthyridine-3-carboxylic acid] | 137 (≈ 245 µM) | < 98 | < 98 | 39
3 | CNc1cc(F)c(F)c2c1[nH]c1ncc(-c3ccc4ccc(C(=O)O)c(=O)n4c3)c(N3CC[C@H]4CN(C)C[C@H]43)c12 [Example 1.34D, 7-[5,6-difluoro-8-(methylamino)-4-[(3aS,6aS)-5-methyl-2,3,3a,4,6,6a-hexahydropyrrolo[2,3-c]pyrrol-1-yl]-9H-pyrido[2,3-b]indol-3-yl]-4-oxo-quinolizine-3-carboxylic acid] | 54 (≈ 99.2 µM) | < 98 | < 98 | < 98
